Experimental data taken from patent US11319273B2, “Lipophilic curcumin analogs and methods of inhibiting HIV-1, treating latent HIV in the brain, and preventing HIV-mediated cognitive decline and HIV dementia” (Howard University, priority 2012, dated 2022).

How the values were obtained:
AKT1 = experiment: Effect on AKT1 mRNA level in CEM cells; type: cell-based; details: CEM cells (FIG. 4)
Text: (§1) Along with brain-derived neurotrophic factor (“BDNF”), protein kinase B (“AKT”), and mitogen-activated protein kinase 1 (“MAPK1”) (i.e., ERK1/2) genes are known to critically regulate cell survival and growth of neurons during development and the survival and function of adult neurons, as well as modulate synaptic transmission and plasticity. This example compares activities of natural curcumin and curcumin analog (1E,4E)-1,5-bis(4-hydroxy-3-methoxyphenyl)penta-1,4-dien-3-one on AKT, MAPK1 and […]. The analog was predicted to be more biologically soluble, absorbable, and more resistant to degradation than the natural curcumin. It has already been shown that natural curcumin increases the expression of BDNF in the hippocampus of rats. It was believed that, compared to natural curcumin, the analog would result in greater increase in the activities of these three neuroprotective genes as proof-of-principle of neuroprotection from latent HIV brain disease. The analysis was conducted on CEM cell lines, which are cells that are susceptible to HIV infection.

BDNF = experiment: Effect on BDNF mRNA level in CEM cells; type: cell-based; details: CEM cells (FIG. 4)
Text: as §1

MAPK1 = experiment: Effect on MAPK1 mRNA level in CEM cells; type: cell-based; details: CEM cells (FIG. 4)
Text: as §1

[1] = Lipophilicity (octanol-water partition coefficient); type: physicochemical
Text: As used herein, lipophilicity refers to the affinity of a compound for a lipophilic environment. By one approach, lipophilicity can be determined using an octanol-water partition coefficient (Kow), which represents the ratio of the solubility of a compound in octanol (a non-polar solvent) to its solubility in water (a polar solvent). The higher the Kow, the more non-polar the compound. Log Kow values are generally inversely related to aqueous solubility and directly proportional to molecular weight. For purposes herein, lipophilicity values range between 0 to 10 and a value of at least 2.5 indicates good lipophilicity. A log Kow value less than 0 is considered hydrophilic.

[2] = system: vesicular stomatitus virus glycoprotein (VSVG) pseudotyped HIV-1 pNL 4-3 virus expressing luciferase (VSVG-HIV-1 Luc)
[3] = system: vesicular stomatitus virus glycoprotein (VSVG) pseudotyped HIV-1 pNL 4-3 virus expressing luciferase (VSVG-HIV-1 Luc); experiment: microbe, parasite or virus in culture; details: Human immunodeficiency virus 1, T-cell, 48 h, read-out: anti-HIV activity IC50

Structure (SMILES)	AKT1 mRNA level (AKT1)	BDNF mRNA level (BDNF)	MAPK1 mRNA level (MAPK1)	lipophilicity [1]	inhibition of HIV-1 virus in vitro [2]	therapeutic index (IC50:cytotoxicity ratio) as compared to curcumin [2]	IC50 [3]
COc1cc(/C=C/C(=O)CC(=O)/C=C/c2ccc(O)c(OC)c2)ccc1O [Natural curcumin, Curcumin]	slight increase	decrease	slight increase				
COc1cc(/C=C/C(=O)/C=C/c2ccc(O)c(OC)c2)ccc1O [curcumin analog, (1E,4E)-1,5-bis(4-hydroxy-3-methoxyphenyl)penta-1,4-dien-3-one]	significantly increased	significantly increased	significantly increased	very lipophilic	able to inhibit HIV at the nanomolar level	wider therapeutic index	8 nM
